In patent publication US12441733B2, “Substituted 2,4-dioxotetrahydropyrimidines as intermediates in the synthesis of bruton's tyrosine kinase inhibitors” (Novartis AG, priority 2018, dated 2025):
Read-outs that look alike come from different tables or passages of the source.

Experiments:
Assay type in all cases: cell-based
BTK-GFP = molecular target: T1, BTK-GFP (Homo sapiens, UniProt Q06187+Q96SW2); experiment: BTK-GFP protein abundance flow cytometry assay in HEK293A cells; conditions: HEK293A BTK-GFP-iresRFP cells, 24 h; for DC50: GFP signal by flow cytometry, concentration at which 50% maximal degradation was observed; for BTK deg Amax: % protein remaining at the concentration at which maximum degradation is seen
T1 construct: expressed in transfected cells; host or cells: HEK293A (Invitrogen R70507), lentiviral transduction with pLenti6-BTK-GFP-Ires-RFP, blasticidin selection
T1 sequence (Q06187 whole entry): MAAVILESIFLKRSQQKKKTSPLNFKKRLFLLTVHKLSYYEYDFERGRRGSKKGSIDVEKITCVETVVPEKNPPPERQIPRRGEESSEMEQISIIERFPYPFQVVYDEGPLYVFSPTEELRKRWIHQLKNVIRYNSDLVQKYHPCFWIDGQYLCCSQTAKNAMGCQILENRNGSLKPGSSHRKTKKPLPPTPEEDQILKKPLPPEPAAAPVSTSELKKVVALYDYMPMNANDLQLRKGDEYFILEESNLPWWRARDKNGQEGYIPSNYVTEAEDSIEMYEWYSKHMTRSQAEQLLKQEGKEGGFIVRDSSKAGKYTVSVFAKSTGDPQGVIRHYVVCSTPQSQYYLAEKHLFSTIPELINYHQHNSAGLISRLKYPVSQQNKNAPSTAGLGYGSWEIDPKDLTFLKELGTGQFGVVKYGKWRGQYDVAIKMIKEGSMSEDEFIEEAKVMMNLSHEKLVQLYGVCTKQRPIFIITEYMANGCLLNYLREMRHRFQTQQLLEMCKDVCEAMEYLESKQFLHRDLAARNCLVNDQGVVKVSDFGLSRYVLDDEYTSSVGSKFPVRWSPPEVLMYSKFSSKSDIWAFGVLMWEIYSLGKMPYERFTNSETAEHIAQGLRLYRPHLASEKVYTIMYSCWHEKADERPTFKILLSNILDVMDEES
T1 sequence (Q96SW2 whole entry): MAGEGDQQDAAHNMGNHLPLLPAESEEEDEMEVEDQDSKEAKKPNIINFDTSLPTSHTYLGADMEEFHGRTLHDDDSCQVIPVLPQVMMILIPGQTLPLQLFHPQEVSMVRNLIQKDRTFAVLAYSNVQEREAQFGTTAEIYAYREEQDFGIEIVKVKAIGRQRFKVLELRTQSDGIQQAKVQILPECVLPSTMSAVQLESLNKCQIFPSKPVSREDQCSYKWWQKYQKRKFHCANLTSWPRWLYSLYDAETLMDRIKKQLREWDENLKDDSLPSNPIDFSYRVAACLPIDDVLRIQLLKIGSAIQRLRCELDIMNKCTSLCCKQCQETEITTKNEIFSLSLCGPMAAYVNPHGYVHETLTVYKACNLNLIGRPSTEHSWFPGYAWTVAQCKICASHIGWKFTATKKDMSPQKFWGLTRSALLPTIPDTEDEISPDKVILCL
T1 sequence (Q16531 whole entry partner): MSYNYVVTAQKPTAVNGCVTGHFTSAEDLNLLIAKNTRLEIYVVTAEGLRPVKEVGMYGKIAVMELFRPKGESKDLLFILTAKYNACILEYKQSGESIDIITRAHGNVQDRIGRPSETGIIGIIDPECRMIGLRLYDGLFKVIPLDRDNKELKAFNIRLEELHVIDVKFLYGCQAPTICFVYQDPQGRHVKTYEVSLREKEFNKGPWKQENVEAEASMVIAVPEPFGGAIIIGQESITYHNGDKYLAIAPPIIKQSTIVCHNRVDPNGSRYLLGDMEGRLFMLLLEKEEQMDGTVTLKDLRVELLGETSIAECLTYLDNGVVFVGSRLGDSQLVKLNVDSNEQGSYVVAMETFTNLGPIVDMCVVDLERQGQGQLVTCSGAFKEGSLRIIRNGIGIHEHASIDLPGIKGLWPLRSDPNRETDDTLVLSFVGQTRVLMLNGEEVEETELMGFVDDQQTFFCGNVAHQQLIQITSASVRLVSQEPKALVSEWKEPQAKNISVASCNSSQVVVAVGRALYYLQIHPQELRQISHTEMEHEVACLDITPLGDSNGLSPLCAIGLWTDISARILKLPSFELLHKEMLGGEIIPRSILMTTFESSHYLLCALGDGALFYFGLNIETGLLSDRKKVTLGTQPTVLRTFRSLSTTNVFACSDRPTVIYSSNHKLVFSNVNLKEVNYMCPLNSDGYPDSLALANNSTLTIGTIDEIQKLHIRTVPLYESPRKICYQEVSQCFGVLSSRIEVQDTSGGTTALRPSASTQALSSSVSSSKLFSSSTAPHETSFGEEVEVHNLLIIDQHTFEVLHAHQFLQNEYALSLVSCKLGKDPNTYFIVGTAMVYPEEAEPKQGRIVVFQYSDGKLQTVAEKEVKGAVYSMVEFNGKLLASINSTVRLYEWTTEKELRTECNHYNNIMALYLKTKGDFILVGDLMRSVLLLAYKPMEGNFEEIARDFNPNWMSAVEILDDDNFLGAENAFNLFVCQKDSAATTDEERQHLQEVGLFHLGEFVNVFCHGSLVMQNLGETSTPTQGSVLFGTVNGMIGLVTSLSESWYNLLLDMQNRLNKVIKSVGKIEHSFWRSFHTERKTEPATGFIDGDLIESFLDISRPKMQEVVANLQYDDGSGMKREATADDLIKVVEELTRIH
Protocol: (§1) Compounds of the invention were tested in the following cellular assays. The terms in Table 2 are defined as follows: DC50 refers to the concentration at which 50% maximal degradation was observed; deg Amax is the extent of degradation and the value refers to the % protein remaining at the concentration at which maximum degradation is seen; ProI GI50 refers to the proliferation data and defines the concentration at which 50% growth inhibition was observed compared to the vehicle treated control at the end of the incubation time. TMD8 cells are BTK dependent and OCI-LY3 cells are BTK independent.
BTK-GFP and IKZF3-GFP protein abundance flow cytometry assay in HEK293A cells:
Degradation of BTK or IKZF3 was measured in HEK293A cells (Invitrogen R70507) expressing either BTK-GFP and RFP or IKZF3-GFP and RFP from a stably integrated bicistronic BTK-GFP-iresRFP or IKZF3-GFP-iresRFP construct, respectively. Reduction of the GFP signal measured by flow cytometry served as readout for BTK or IKZF3 degradation after degrader treatment.
i) Cloning of the pLenti6-BTK-GFP-1Res-RFP and IKZF3-GFP-Ires-RFP Sensor Vectors
The bicistronic BTK-GFP-iresRFP construct is based on a pLenti6-DEST vector backbone where GFP was introduced into the unique Xho1 site downstream of the destination cassette (DEST) and RFP was cloned behind an internal ribosomal entry site (Ires).
In detail, the sensor construct was engineered by replacing NanoLuciferase (NLuc) by GFP and FireFly luciferase (FF) by RFP from pLenti6-DEST-NLuc-Ires-FF.
The pLenti6-DEST-NLuc-Ires-FF sensor construct was cloned by replacing eGFP from pLenti6-DEST-ires-eGFP with a synthesized stuffer element (encoding Ires-FF with FF flanked by two Nhe1 restriction sites) using blunt end cloning replacing Ires-eGFP between the two PmII. To enable C-terminal tagging with NanoLuciferase (NLuc), NLuc was amplified from pNL1.1 (Promega #N1001) using linker primers with Xho1 sites for ligating into linearized pLenti6-DEST-Ires-FF using Xho1 digest resulting in the construct pLenti6-DEST-NLuc-Ires-FF.
The pLenti6-DEST-NLuc-Ires-FF served as base vector for cloning pLenti6-DEST-GFP-Ires-RFP using Gibson assembly to replace FF with RFP and NLuc with GFP. In a first round FF was replaced by RFP by amplifying RFP from a template using the following Gibson assembly linker primers (Gibson-Nhe1 RFPfw, […]gctagc[…] (SEQ ID NO: 1); Gibson-Nhe1 RFP-Stoprev, […]ctagc[…] (SEQ ID NO: 2)) to clone into pLenti6-DEST-NLuc-Ires-FF digested with Nhe1 and gel-purified to remove the FF fragment. The resulting pLenti6-DEST-NLuc-Ires-RFP vector served as the template to replace NLuc with GFP by amplifying GFP from a template using following Gibson assembly linker primers (Gibson-Xho1 GFPfw, […]c[…] (SEQ ID NO: 3); Gibson-Xho1 GFP-Stoprev, […] (SEQ ID NO: 4)) to clone into pLenti6-DEST-NLuc-Ires-RFP digested with Xho1 and gel-purified to remove the NLuc fragment. All Gibson assembly reactions were performed with Gibson assembly Master Mix (New England Biolabs NEB E261 IL) according to manufacturer's manual, resulting in the destination vector pLenti6-DEST-GFP-Ires-RFP to allow Gateway cloning. To enable gateway cloning and C-terminal GFP tagging of BTK, the BTK open reading frame (ORF) was first shuttled from a pcDNA-DEST40-BTK vector (Invitrogen library ID INV_20090504v1) into pDONR221 (Invitrogen 12536-017) vector using a gateway BP reaction according to the manufacturer's manual (Invitrogen 11789-013) resulting in the novel construct pENTR221-BTK. For C-terminal tagging the STOP codon was mutated to a leucine performing a mutagenesis reaction with the following primers (pENTR221-BTK Quikchange STOP-Leu fw, gtcatggatgaagaatccTTGaacccagctttcttgtac; pENTR221-BTK Quikchange STOP-Leu REVC, gtacaagaaagctgggttCAAggattcttcatccatgac) using the QuikChange Lightning mutagenesis kit (Agilent Technologies #210518) according to the manufacturer's manual, resulting in pENTR221-BTK (STOP-Leu). […]

TMD8 cells = experiment: Resazurin cell viability (proliferation) assay in TMD8 DLBCL cells; conditions: TMD8 cells (BTK dependent), 72 h, 50% growth inhibition vs vehicle, read-out: TMD8 Prol GI50
Protocol: as §1
(§2) Cell Viability Assay in DLBCL (Diffuse Large B-Cell Lymphoma) Cells:
(§3) The effect of the BTK compounds on cell proliferation was measured by a Resazurin (Sigma, #R7017) based cell viability assay. TMD8 (BTK compound sensitive) and OCI-LY3 (BTK compound insensitive) cells were incubated for 72 h at 37° C. and 5% CO2 with the corresponding compound, Resazurin is a non-toxic, cell-permeable substrate that is virtually non-fluorescent. Upon entering living cells, Resazurin (Sigma, #R7017) is reduced to highly fluorescent Resorufin. The metabolic activity was assessed by measuring the fluorescence signal (ex. 530 nm; em. 600 nm).
(§4) TMD8 and OCI-Ly3 cells were seeded at day 0 in triplicates at a cell density of 1×10^4 cells per 150 μl/well in a 96-well plate (Costar #3904). Additional plates were prepared, in order to assess the basal metabolic activity of both cell lines at the beginning of the experiment. For these reference plates, Resazurin (Sigma, #R7017) was added to a final concentration of 13 μg/ml 3 h post seeding and was incubated for 2 h at 37° C. and 5% CO2. Following incubation, the fluorescent signal intensity of the 96-well plates was measured on a Mithras LB940 multimode plate reader at 530/600 nm (Berthold Technologies, Germanyl).
(§5) In parallel, 3 h post-seeding, test-plates were treated with compound at various concentrations, or with vehicle (DMSO) alone for 3 days. The compound addition to the plates was performed by using a HP D300 digital dispenser (TECAN, Switzerland). The compounds were tested in triplicate, 8-point serial dilution (1:4), with a start concentration of 10 μM for OCI-LY3 and 1 μM for the TMD8 cells, respectively. To assess the relative proliferation of the cells, Resazurin was added to each well directly to the medium to a final concentration of 13 μg/ml. The plates were incubated for 2 h at 37° C. and 5% CO2 to result in a 72 h endpoint. Following incubation, the fluorescent signal intensity of the 96-well plates were measured on a Mithras LB940 multimode plate reader at 530/600 nm (Berthold Technologies, Germanyl). The formation of Resorufin dye directly correlates with the number of metabolically active cells. For each triplicate treatment the mean and standard deviation were calculated and analyzed via curve fitting software to determine the respective compound concentration resulting in 50% growth inhibition (GI50) values. For each compound GI50 values were typically determined from at least 2 entirely independent experiments.
TMD8 cells were acquired through a license agreement with Tokyo Medical and Dental University, Japan. Cells are cultivated in MEM Alpha (BioConcept, #1-23F01-1, lot. LB04262P) supplemented with 10% FCS (HyClone, GE #SH30066.03, lot AB3217603), 2 mM L-Glutamine (BioConcept, #5-10K50-H, lot. LA03467P), 1% Pen/Strep (BioConcept, #4-01F00-H, lot. LB04235P).

OCI-LY3 cells = experiment: Resazurin cell viability (proliferation) assay in OCI-LY3 DLBCL cells; conditions: OCI-LY3 cells (BTK independent), 72 h, 50% growth inhibition vs vehicle, read-out: OCI-LY3 Prol GI50
Protocol: as §1, §2, §3, §4, §5
OCI-LY3 cells were acquired through a license agreement with University Health Network, Toronto, Canada. Cells are cultivated in RPM11640 media (Gibco, #61870-010, lot. 1894759), supplemented with 10% FCS (HyClone, GE #SH30066.03, lot AB217603), 2 mM L-Glutamine (BioConcept, #5-10K50-H, lot. LA03467P), 1 mM Sodium Pyruvate (BioConcept, #5-60F00-H, lot. LB10510P), 10 mM HEPES (Gibco, #15630-056, lot. 1854074), 1% Pen/Strep (BioConcept, #4-01F00-H, lot. LB04235P).

Row | Structure (SMILES) | DC50 (BTK-GFP) | BTK deg Amax (BTK-GFP) | GI50 (OCI-LY3 cells; Homo sapiens) | GI50 (TMD8 cells; Homo sapiens) | GI50 (TMD8 cells) | GI50 (OCI-LY3 cells)
1 | COc1ccc(C(=O)N2CCC(O[C@H]3CC[C@@H](Oc4ccc(-c5cc6c(-c7cc(F)cc(NC(=O)c8ccc(C(C)(C)O)cc8F)c7C)ncnc6[nH]5)cc4)CC3)CC2)cc1N1CCC(=O)NC1=O [Compound 54, N-(3-(6-(4-(((1s,4s)-4-((1-(3-(2,4-dioxotetrahydropyrimidin-1(2H)-yl)-4-methoxybenzoyl)piperidin-4-yl)oxy)cyclohexyl)oxy)phenyl)-7H-pyrrolo[2,3-d]pyrimidin-4-yl)-5-fluoro-2-methylphenyl)-2-fluoro-4-(2-hydroxypropan-2-yl)benzamide] | 1.5 nM | 4.4% | – | – | 3.56 nM | > 10000 nM
2 | Cc1c(NC(=O)c2ccc(C(C)(C)O)cc2F)cc(F)cc1-c1ncnc2[nH]c(-c3ccc(CNCCCCCN(C)C(=O)c4ccc(Cl)c(N5CCC(=O)NC5=O)c4)cc3)cc12 [Compound 42, 4-chloro-3-(2,4-dioxotetrahydropyrimidin-1(2H)-yl)-N-(5-((4-(4-(5-fluoro-3-(2-fluoro-4-(2-hydroxypropan-2-yl)benzamido)-2-methylphenyl)-7H-pyrrolo[2,3-d]pyrimidin-6-yl)benzyl)amino)pentyl)-N-methylbenzamide] | 59.5 nM | 8.8% | 8920 nM | 5.34 nM | – | –
3 | COc1ccc(C(=O)N2CC3(CCN(Cc4ccc(-c5cc6c(-c7cc(F)cc(NC(=O)c8ccc(C(C)(C)O)cc8F)c7C)ncnc6[nH]5)cc4)CC3)C2)cc1N1CCC(=O)NC1=O [Compound 32] | 34.2 nM | 15.4% | 7440 nM | 6.31 nM | – | –

The next lines start with results.

Row | DC50 (BTK-GFP) | BTK deg Amax (BTK-GFP) | GI50 (OCI-LY3 cells; Homo sapiens) | Structure (SMILES) | GI50 (TMD8 cells; Homo sapiens) | GI50 (TMD8 cells) | GI50 (OCI-LY3 cells)
4 | 26.2 nM | 4.2% | > 10000 nM | COc1ccc(C(=O)N2CCC3(CCN(Cc4ccc(-c5cc6c(-c7cc(F)cc(NC(=O)c8ccc(C(C)(C)O)cc8F)c7C)ncnc6[nH]5)cc4)CC3)C(CO)C2)cc1N1CCC(=O)NC1=O (racemic) [Compound 1, rac-N-(3-(6-(4-((9-(3-(2,4-Dioxotetrahydropyrimidin-1(2H)-yl)-4-methoxybenzoyl)-7-(hydroxymethyl)-3,9-diazaspiro[5.5]undecan-3-yl)methyl)phenyl)-7H-pyrrolo[2,3-d]pyrimidin-4-yl)-5-fluoro-2-methylphenyl)-2-fluoro-4-(2-hydroxypropan-2-yl)benzamide] | 3.89 nM | – | –
5 | 10.8 nM | 3.4% | 4320 nM | COc1ccc(C(=O)N2CCC(OC(CO)CN3CCC(Oc4ccc(-c5cc6c(-c7cc(F)cc(NC(=O)c8ccc(C(C)(C)O)cc8F)c7C)ncnc6[nH]5)cc4)CC3)CC2)cc1N1CCC(=O)NC1=O (racemic) [Compound 18, rac-N-(3-(6-(4-((1-(2-((1-(3-(2,4-Dioxotetrahydropyrimidin-1(2H)-yl)-4-methoxybenzoyl)piperidin-4-yl)oxyl)-3-hydroxypropyl)piperidin-4-yl)oxyl)phenyl)-7H-pyrrolo[2,3-d]pyrimidin-4-yl)-5-fluoro-2-methylphenyl)-2-fluoro-4-(2-hydroxypropan-2-yl)benzamide] | 1.58 nM | – | –
6 | 20.8 nM | 9.4% | 3600 nM | Cc1c(NC(=O)c2ccc(C(C)(C)O)cc2F)cc(F)cc1-c1ncnc2[nH]c(-c3ccc(CN4CCC5(CC4)CN(CCCNC(=O)c4ccc(Cl)c(N6CCC(=O)NC6=O)c4)CCO5)cc3)cc12 [Compound 48, N-(3-(6-(4-((4-(3-(4-chloro-3-(2,4-dioxotetrahydropyrimidin-1(2H)-yl)benzamido)propyl)-1-oxa-4,9-diazaspiro[5.5]undecan-9-yl)methyl)phenyl)-7H-pyrrolo[2,3-d]pyrimidin-4-yl)-5-fluoro-2-methylphenyl)-2-fluoro-4-(2-hydroxypropan-2-yl)benzamide] | 2.23 nM | – | –
